Source: ChEMBL document CHEMBL1201862, “PubChem BioAssay data set” (2004)
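96-well plates; 48 h exposure; 5 concentrations. Endpoints by linear interpolation between flanking doses. Not reached: highest tested concentration assigned. GI50: concentration for 50% inhibition of growth.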 Activity calls are given as the source filed them. No stated cut-off is given here; in the data, active = GI50 up to about 1.1 µM and inactive = higher. Residues, ends and D or L forms follow the SMILES beside them. Groups on a side chain read outwards from the residue. *: point of attachment. Cbz = O=C(OCc1ccccc1)*; Boc = CC(C)(C)OC(=O)*

Key:
Experiment in all cases: growth of human tumour cells (NCI), 48 h
[1] = system: MDA-N
[2] = system: Hs-578T
[3] = system: T47D
[4] = system: LXFL 529
[5] = system: SNB-78
[6] = system: HOP-18
[7] = system: DMS-273
[8] = system: KM-20L2

Row | SMILES | GI50 [1] | GI50 [2] | GI50 [3] | GI50 [4] | GI50 [5] | GI50 [6] | GI50 [7] | GI50 [8]
1 | CC(=O)OCC1(C)C(O)CCC2(C)C1CCC1CC3CC12CCC3(O)CO (centres undefined) | > 100 µM (inactive) | > 53.6 µM (inactive) | > 100 µM (inactive) | – | – | – | – | –
2 | CN(/C(=N\O)c1ccccc1)c1ccccc1 | – | – | – | 34.8 µM (inactive) | 28.4 µM (inactive) | < 0.01 µM (active) | 24.3 µM (inactive) | 17.3 µM (inactive)
3 | CCC1(O)C(=O)OCc2c1cc1n(c2=O)Cc2cc3cc(N)ccc3nc2-1 (centres undefined) | 0.0232 µM (active) | 1.42 µM (inactive) | < 0.01 µM (active) | – | – | – | – | –
4 | CC(CC(=O)Nc1ccc(NC(=O)CC(C)/N=N\C(N)=O)cc1)/N=N\C(N)=O (centres undefined) | – | – | – | > 100 µM (inactive) | – | > 100 µM (inactive) | 41.6 µM (inactive) | > 100 µM (inactive)
5 | O=C1CCCC/C1=C1\C(=O)Nc2cc(F)ccc21 | – | – | – | > 100 µM (inactive) | > 100 µM (inactive) | > 100 µM (inactive) | > 100 µM (inactive) | > 100 µM (inactive)
6 | C[N+](C)(C)CCN[N+]1(C)CCCc2ccccc21 (centres undefined) | > 100 µM (inactive) | > 100 µM (inactive) | 36.5 µM (inactive) | – | – | – | – | –
7 | COc1cccc(OCC(=N/NC(=O)c2ccncc2)/N=C/c2cccnc2)c1 | > 100 µM (inactive) | > 100 µM (inactive) | > 100 µM (inactive) | – | – | – | – | –
8 | CCOC(=O)C(C(=O)c1ccccc1C(=O)OC)=P(c1ccccc1)(c1ccccc1)c1ccccc1 | > 10 µM (inactive) | > 10 µM (inactive) | > 10 µM (inactive) | – | – | – | – | –
9 | C[C@]12C(=O)OC[C@H](c3ccccc3)N1C(=O)N(Cc1ccccc1)[C@@H]2CO | > 100 µM (inactive) | > 100 µM (inactive) | – | – | – | – | – | –
10 | COc1ncnc2c1cnn2Cc1cn(COCC(O)CO)nn1 (centres undefined) | > 100 µM (inactive) | – | > 100 µM (inactive) | – | – | – | – | –
11 | CCCC(=O)N[C@@H](Cc1cc(I)c(O)c(I)c1)C(=O)NCCCNCCCCNCCCNC(=O)[C@@H](N)CCCN=C(N)N | – | – | – | 78 µM (inactive) | – | – | 27.4 µM (inactive) | > 100 µM (inactive)
12 | CS(=O)(=O)c1ccc(C2=C(c3ccccc3)C(=O)OC2)cc1 [ROFECOXIB] | > 100 µM (inactive) | > 100 µM (inactive) | > 100 µM (inactive) | – | – | – | – | –
13 | CC(C)(C)OC(=O)NC(CCCCNC(=O)CNC(=O)OCc1ccccc1)C(=O)NC(CCCCNC(=O)CNC(=O)OCc1ccccc1)C(=O)NC(CCCCNC(=O)CNC(=O)OCc1ccccc1)C(=O)NC(CCCCNC(=O)CNC(=O)OCc1ccccc1)C(=O)O (centres undefined) (Boc-K([Gly-Cbz])K([Gly-Cbz])K([Gly-Cbz])K([Gly-Cbz])-OH; configuration not given here) | > 100 µM (inactive) | – | > 100 µM (inactive) | – | – | – | – | –
14 | COC1(OC)CC(CO)(CNc2nc(N)nc(Cl)c2/C=N\O)C1 | 63.2 µM (inactive) | 22.7 µM (inactive) | – | – | – | – | – | –
15 | Cc1nc2c(=S)n(C)ncc2[nH]1 | > 100 µM (inactive) | – | > 100 µM (inactive) | – | – | – | – | –
16 | COC(=O)C1=COc2c(n(C)c3ccccc23)-c2ccccc21 | > 100 µM (inactive) | > 100 µM (inactive) | > 100 µM (inactive) | – | – | – | – | –
17 | Cc1c(C(=O)c2ccc(N)c3ccccc23)c2ccccc2n1CCN1CCOCC1 | 16.3 µM (inactive) | 0.759 µM (active) | 31.5 µM (inactive) | – | – | – | – | –
18 | COc1ccc2c(c1)CC[C@@H]1C2CC[C@]2(C)C(=N\O)/C(=N/O)CC12 (some centres undefined) | – | – | – | 12.8 µM (inactive) | 17 µM (inactive) | 15.7 µM (inactive) | 12 µM (inactive) | 6.21 µM (inactive)
19 | OC(c1cc2ccc(C(F)(F)F)cc2c2cc(C(F)(F)F)ccc12)C1CCCCN1 (centres undefined) | 1.75 µM (inactive) | 1.9 µM (inactive) | 1.87 µM (inactive) | – | – | – | – | –
20 | CCOC(=O)C1C(=O)CC(C)(O)C(C(=O)OCC)C1c1ccc(N(C)C)cc1 (centres undefined) | – | – | > 100 µM (inactive) | – | – | – | – | –
21 | O=C(Nc1nc(C23CC4CC(CC(C4)C2)C3)cs1)c1c(O)c2ccccc2[nH]c1=O | > 100 µM (inactive) | > 100 µM (inactive) | – | – | – | – | – | –
22 | O=C1c2cccc(O)c2C(=O)c2c(O)cccc21 [DANTHRON] | – | – | – | > 100 µM (inactive) | > 100 µM (inactive) | – | 31.6 µM (inactive) | 99.1 µM (inactive)
23 | Cc1cc(C)c2c(O)cc(-c3cccc(Cl)c3)nc2n1 | 0.0138 µM (active) | 0.252 µM (active) | – | – | – | – | – | –
24 | Clc1cc(Cl)c2cc3cccc[n+]3cc2c1Cl | 16.5 µM (inactive) | 18.1 µM (inactive) | 7.64 µM (inactive) | – | – | – | – | –
25 | COc1c(O)cc2c3c(ccnc13)NC=C2 | > 100 µM (inactive) | > 100 µM (inactive) | – | – | – | – | – | –
26 | Cc1[nH]c2ccccc2c1C1Cc2ccccc2N1C(=O)/C=C/C=C/c1ccccc1 (centres undefined) | – | – | – | > 100 µM (inactive) | > 100 µM (inactive) | – | > 100 µM (inactive) | > 100 µM (inactive)
27 | CCc1cc2c(oc3cc(C)ccc32)c(=O)n1C | > 10 µM (inactive) | > 10 µM (inactive) | > 10 µM (inactive) | – | – | – | – | –
28 | Cn1c(=O)c(C(=O)NC23CC4CC(CC(C4)C2)C3)c(O)c2ccccc21 | – | – | – | 59.4 µM (inactive) | 43.3 µM (inactive) | – | 26.2 µM (inactive) | 28.9 µM (inactive)
29 | C/C(=N\NS(=O)(=O)c1ccccc1)c1ccc(Cl)c(Cl)c1 | – | – | – | 34.5 µM (inactive) | > 100 µM (inactive) | 49.8 µM (inactive) | 85.3 µM (inactive) | 72.8 µM (inactive)
